Structures can show the parent of a compound that is named as a salt. Where two headings read alike, the source gives them in different places.
Molecular target: T1, CAMKK1 kinase domain (CAMKK1-KD, Gln124-Lys411) (Homo sapiens, UniProt Q8N5S9)
T1 construct: The kinase domain (Gln124 to Lys411) was amplified using the primers; 6xHis (TEV-cleavable) (N, cleaved yes); made in house; host or cells: Escherichia coli BL21(DE3)-R3 co-expressing λ-phosphatase
Assay: Differential scanning fluorimetry (DSF) screen of a kinase inhibitor library against CAMKK1-KD
Format: binding
Procedure: DSF measurements were made in a 384-well plate.
The compounds, previously solubilized in DMSO, were used at 10 µM final concentration and 0.1% DMSO. Plates were sealed using optically clear films and transferred to a QuantStudio 6 qPCR instrument (Applied Biosystems). […] Protein in 0.1% DMSO was used as a reference.

[1] = DSF, 1 μM CAMKK1-KD, compound 10 µM, supplement
[2] = DSF, 1 μM CAMKK1-KD, compound 10 µM, supplement, read-out: Mean ΔTm (°C)
[3] = DSF, 1 μM CAMKK1-KD, compound 10 µM, mean and standard error from triplicate measurements, read-out: ΔTm (°C) CAMKK1

T1 sequence (Q8N5S9 124-411): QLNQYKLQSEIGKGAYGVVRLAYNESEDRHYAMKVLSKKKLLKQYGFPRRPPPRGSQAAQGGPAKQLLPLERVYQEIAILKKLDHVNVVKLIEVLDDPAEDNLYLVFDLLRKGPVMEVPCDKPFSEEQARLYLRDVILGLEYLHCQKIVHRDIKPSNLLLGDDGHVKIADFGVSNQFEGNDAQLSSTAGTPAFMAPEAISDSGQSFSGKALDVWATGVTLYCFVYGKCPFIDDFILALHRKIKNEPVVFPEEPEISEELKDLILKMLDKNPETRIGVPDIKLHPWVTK

Row | Compound | Mean ΔTm (°C) [1] [°C] | ΔTm at 10 µM [2] [°C] | further results
1 | Cc1[nH]nc2ccc(-c3cncc(OC[C@@H](N)Cc4ccccc4)c3)cc12 [A-674563] | 5.7 | – | –
2 | O=C1NC(=O)/C(=C/c2ccc(-c3ccc(F)cc3O)o2)S1 [AS-252424] | 4.8 | – | –
3 | Cc1cc(Nc2nc(N[C@@H](C)c3ccc(F)cc3)c(C#N)cc2F)[nH]n1 [AZ 960] | – | 4.4 | –
4 | COc1cc(N2CCC(N)CC2)ccc1Nc1ncc(Cl)c(-c2c[nH]c3ccccc23)n1 [AZD3463] | – | – | ΔTm (°C) CAMKK1 (DSF, 1 μM CAMKK1-KD, compound 10 µM, mean and standard error from triplicate measurements): 11.5 ± 0.3 °C
5 | CN(C)C/C=C/C(=O)Nc1cc2c(Nc3ccc(F)c(Cl)c3)ncnc2cc1O[C@H]1CCOC1 [Afatinib (BIBW2992), Afatinib] | – | 3.4 | –
6 | CC(C)CCN1c2nc(Nc3cc(F)c(O)c(F)c3)ncc2N(C)C(=O)C1C (stereo not shown) [BI-D1870] | 3.6 | – | –
7 | O=C1Nc2cc(Br)ccc2/C1=C1/Nc2ccccc2/C1=N\O [BIO] | 2.9 | – | –
8 | CCOc1ccn(-c2ccc(F)cc2)c(=O)c1C(=O)Nc1ccc(Oc2ccnc(N)c2Cl)c(F)c1 [BMS-777607] | – | – | ΔTm at 10 µM (read-out: ΔTm (°C) CAMKK1): 7.5 ± 0.3 °C
9 | O=c1[nH]c2ccc(Cl)cc2c(N[C@@H]2CN3CCC2CC3)c1-c1nc2ccccc2[nH]1 [CHIR-124] | 5.5 | – | –
10 | C=CC(=O)Nc1cccc(Nc2nc(Nc3ccc(N4CCN(C(C)=O)CC4)cc3OC)ncc2C(F)(F)F)c1 [CO-1686 (AVL-301)] | – | 3.4 | –
11 | COc1cc2nccc(Oc3ccc(NC(=O)C4(C(=O)Nc5ccc(F)cc5)CC4)cc3)c2cc1OC [Cabozantinib (XL184), Cabozantinib] | 5.0 | – | –
12 | COc1cc2nccc(Oc3ccc(NC(=O)C4(C(=O)Nc5ccc(F)cc5)CC4)cc3)c2cc1OC [Cabozantinib malate (XL184), Cabozantinib malate] | – | 5.2 | –
13 | CO[C@@H](C(=O)N1Cc2n[nH]c(NC(=O)c3ccc(N4CCN(C)CC4)cc3)c2C1)c1ccccc1 [Danusertib (PHA-739358), Danusertib] | – | 3.8 | –
14 | CN1CCN(c2ccc3nc(-c4c(N)c5c(F)cccc5[nH]c4=O)[nH]c3c2)CC1 [Dovitinib (TKI-258), Dovitinib] | 3.1 | – | –
15 | CN(C)CCCn1cc(C2=C(c3c[nH]c4ccccc34)C(=O)NC2=O)c2ccccc21 [GF109203X] | 2.4 | – | –
16 | CN1CCN(C2CCN(C(=O)Nc3cc(Oc4ccc(NC(=O)C5(C(=O)Nc6ccc(F)cc6)CC5)c(F)c4)ccn3)CC2)CC1 [Golvatinib (E7050), Golvatinib] | – | 5.5 | –
17 | COc1cc2nccc(Oc3ccc(NC(=O)Nc4ccc(F)cc4F)c(F)c3)c2cc1OC [Ki8751] | 2.1 | – | –
18 | CNC(=O)c1nn(C)c2c1C(C)(C)Cc1cnc(Nc3ccc(N4CCN(C)CC4)cc3)nc1-2 [Milciclib (PHA-848125), Milciclib] | – | 4.1 | –

Row | Compound | Mean ΔTm (°C) [1] [°C] | ΔTm at 10 µM [2] [°C] | further results
19 | NC(=O)c1cnc(N[C@@H]2CCCC[C@@H]2N)nc1Nc1cccc(-n2nccn2)c1 [PRT062607 (P505-15)] | 4.1 | – | –
20 | C1=C/COCc2cc(ccc2OCCN2CCCC2)Nc2nccc(n2)-c2cccc(c2)COC/1 [Pacritinib (SB1518), Pacritinib] | – | – | ΔTm at 10 µM [3]: 5.7 ± 1.2 °C
21 | CC(=O)c1c(C)c2cnc(Nc3ccc(N4CCNCC4)cn3)nc2n(C2CCCC2)c1=O [Palbociclib (PD-0332991) HCl, Palbociclib] | – | – | ΔTm at 10 µM (read-out: Mean ΔTm (°C)): 4.4 °C
22 | CCOc1cc2ncc(C#N)c(Nc3ccc(F)c(Cl)c3)c2cc1NC(=O)/C=C/CN(C)C [Pelitinib (EKB-569), Pelitinib] | – | 3.2 | –
23 | Cc1ccc(C(=O)Nc2ccc(CN3CCN(C)CC3)c(C(F)(F)F)c2)cc1C#Cc1cnc2cccnn12 [Ponatinib (AP24534), Ponatinib] | – | – | ΔTm at 10 µM (read-out: ΔTm (°C) CAMKK1): 4.4 ± 3.1 °C
24 | O=c1c(O)c(-c2ccc(O)c(O)c2)oc2cc(O)cc(O)c12 [Quercetin] | – | 4.9 | –
25 | COc1cc(C(=O)NC2CCN(C)CC2)ccc1Nc1ncc2c(n1)N(C1CCCC1)CC(F)(F)C(=O)N2C [Ro3280] | 4.8 | – | –
26 | CS(=O)(=O)O.Cn1cc(C2=C(c3cn(CCCSC(=N)N)c4ccccc34)C(=O)NC2=O)c2ccccc21 [Ro 31-8220 Mesylate] | 3.4 | – | –
27 | CN1CCC(CNc2ccc3ncc(-c4cccc(OC(F)(F)F)c4)n3n2)CC1 [SGI-1776 free base] | 3.4 | – | –
28 | O=C(Nc1cccc(Cl)c1)Nc1ncc(CCNc2ncnc3ccsc23)s1 [SNS-314 Mesylate] | – | – | ΔTm at 10 µM (read-out: Mean ΔTm (°C)): 4.5 °C
29 | CN[C@@H]1C[C@H]2O[C@@](C)([C@@H]1OC)n1c3ccccc3c3c4c(c5c6ccccc6n2c5c31)C(=O)NC4 [Staurosporine] | – | – | ΔTm at 10 µM (read-out: ΔTm (°C) CAMKK1): 23.7 ± 1.9 °C
30 | CNC(=O)c1ccccc1Nc1nc(Nc2ccc(N3CCOCC3)cc2OC)ncc1Cl [TAE226 (NVP-TAE226)] | 3.0 | – | –
31 | Cc1cnc(Nc2ccc(OCCN3CCCC3)cc2)nc1Nc1cccc(S(=O)(=O)NC(C)(C)C)c1 [TG101348 (SAR302503)] | – | 3.4 | –
32 | Cc1[nH]c(/C=C2\C(=O)Nc3ccccc32)c(C)c1CCC(=O)O [TSU-68 (SU6668)] | – | 4.9 | –
33 | COc1cc2c(N3CCN(C(=O)Nc4ccc(OC(C)C)cc4)CC3)ncnc2cc1OCCCN1CCCCC1 [Tandutinib (MLN518), Tandutinib] | – | 2.3 | –
34 | O=C(NCc1ccccc1)c1csc(Nc2ccncn2)n1 [Thiazovivin] | 3.0 | – | –
35 | COc1cc2nccc(Oc3ccc(NC(=O)Nc4cc(C)on4)c(Cl)c3)c2cc1OC [Tivozanib (AV-951), Tivozanib] | – | – | ΔTm at 10 µM [3]: 2.6 ± 3.1 °C

Now from value to compound, other results behind:

Row | Mean ΔTm (°C) [1] [°C] | ΔTm at 10 µM [2] [°C] | Compound | further results
36 | 5.2 | – | COc1ccc2c(Oc3ccc(NC(=O)c4c(C)n(CC(C)(C)O)n(-c5ccccc5)c4=O)nc3)ccnc2c1 [AMG-458] | –
37 | – | 5.6 | O=C(Nc1c[nH]nc1-c1nc2ccc(CN3CCOCC3)cc2[nH]1)NC1CC1 [AT9283] | –
38 | – | 3.8 | Cc1cc(Nc2nc(N[C@@H](C)c3ncc(F)cn3)ncc2Cl)n[nH]1 [AZD1480] | –
39 | – | 3.4 | Cc1ncc(-c2ccnc(Nc3ccc(S(C)(=O)=O)cc3)n2)n1C(C)C [AZD5438] | –
40 | – | 3.6 | NC(=O)Nc1cc(-c2cccc(F)c2)sc1C(=O)N[C@H]1CCCNC1 [AZD7762] | –
41 | – | 2.6 | C=CC(=O)Nc1cc(Nc2nccc(-c3cn(C)c4ccccc34)n2)c(OC)cc1N(C)CCN(C)C [AZD9291] | –
42 | 3.6 | – | Cc1cc(N2CCOCC2)cc2[nH]c(-c3c(NC[C@@H](O)c4cccc(Cl)c4)cc[nH]c3=O)nc12 [BMS-536924] | –
43 | – | 4.9 | Nc1nccc(Oc2ccc(NC(=O)c3c[nH]cc(-c4ccc(F)cc4)c3=O)cc2F)c1Cl [BMS-794833] | –
44 | – | 5.6 | O=C(NCCCNc1nc(Nc2cccc(NC(=O)N3CCCC3)c2)ncc1I)c1cccs1 [BX-795] | –
45 | 4.3 | – | O=C(Nc1cccc(Nc2ncc(Br)c(NCCc3cnc[nH]3)n2)c1)N1CCCC1 [BX-912] | –
46 | 4.4 | – | C=CC(=O)Nc1cccc(Nc2nc(Nc3ccc(NC4CN(CCF)C4)cc3OC)ncc2C(F)(F)F)c1 [CNX-2006] | –
47 | – | 2.7 | Cc1nc(N)sc1-c1ccnc(Nc2ccc(N3CCOCC3)cc2)n1 [CYC116] | –
48 | – | 4.7 | N#CCNC(=O)c1ccc(-c2ccnc(Nc3ccc(N4CCOCC4)cc3)n2)cc1 [CYT387] | –
49 | – | 2.6 | Cc1cc(Nc2cc(N3CCN(C)CC3)nc(/C=C/c3ccccc3)n2)n[nH]1 [ENMD-2076] | –
50 | 5.4 | – | O=C1Nc2ccc(I)cc2/C1=C/c1cc(Br)c(O)c(Br)c1 [GW5074] | –
51 | – | 3.6 | Nc1nc(Nc2ccc(S(N)(=O)=O)cc2)nn1C(=O)c1c(F)cccc1F [JNJ-7706621] | –

Row | Mean ΔTm (°C) [1] [°C] | ΔTm at 10 µM [2] [°C] | Compound | further results
52 | 4.2 | – | COc1ccccc1-c1cc(Nc2cccc(CS(N)(=O)=O)c2)ncn1 [LDC000067] | –
53 | – | 3.9 | Cc1cc(Nc2ncc(Cl)c(Nc3ccccc3S(=O)(=O)C(C)C)n2)c(OC(C)C)cc1C1CCNCC1 [LDK378] | –
54 | – | 4.6 | Cc1cc(Nc2cc(CN3CCOCC3)c3nc(C)c(Cc4ccc(Cl)cc4F)n3n2)n[nH]1 [LY2784544] | –
55 | – | 6.7 | CCN1CCN(Cc2ccc(Nc3ncc(F)c(-c4cc(F)c5nc(C)n(C(C)C)c5c4)n3)nc2)CC1 [LY2835219] | –
56 | 2.0 | – | O=C(c1cccc(Cl)c1F)N1CCN(Cc2cccc(Nc3nccs3)n2)CC1 [MK-8745] | –
57 | 5.2 | – | CN(c1ncccc1CNc1nc(Nc2ccc3c(c2)CC(=O)N3)ncc1C(F)(F)F)S(C)(=O)=O [PF-00562271] | –
58 | 5.6 | – | CN(c1ncccc1CNc1nc(Nc2ccc3c(c2)CC(=O)N3)ncc1C(F)(F)F)S(C)(=O)=O [PF-562271] | –
59 | 5.8 | – | CS(=O)(=O)c1cccc(CNc2nc(Nc3ccc4c(c3)CCC(=O)N4)ncc2C(F)(F)F)c1 [PF-573228] | –
60 | – | 4.6 | Cc1nc(Nc2[nH]nc3c2CN(C(=O)N[C@H](CN(C)C)c2ccccc2)C3(C)C)c2sccc2n1 [PF-3758309] | –
61 | – | 5.2 | Cc1[nH]c(/C=C2\C(=O)Nc3ccc(S(=O)(=O)Cc4c(Cl)cccc4Cl)cc32)c(C)c1C(=O)N1CCC[C@@H]1CN1CCCC1 [PHA-665752] | –
62 | 3.0 | – | O=C1NCCc2[nH]c(-c3ccncc3)cc21 [PHA-767491] | –
63 | – | 3 | CC(C)CC(=O)Nc1[nH]nc2c1CN(C(=O)C1CCN(C)CC1)C2(C)C [PHA-793887] | –
64 | 5.6 | – | O=C(NCc1cccc(O)c1)Nc1nc(-c2ccncc2)cs1 [RKI-1447] | –
65 | 2.7 | – | O=C1NC(=O)C(c2ccccc2[N+](=O)[O-])=C1Nc1ccc(O)c(Cl)c1 [SB415286] | –
66 | – | 5 | CCS(=O)(=O)c1cccc(-c2cc(C(=O)NC3CCN(C)CC3)c(C)c3[nH]c4ncc(C)cc4c23)c1 [TAK-901] | –
67 | 3.6 | – | Cc1cnc(Nc2ccc(N3CCN(C)CC3)cc2)nc1Nc1cccc(S(=O)(=O)NC(C)(C)C)c1 [TG101209] | –

Source: publication PMC6172212, “Structural Analysis of Inhibitor Binding to CAMKK1 Identifies Features Necessary for Design of Specific Inhibitors” (Scientific Reports, 2018)
